Structures can show the parent of a compound that is named as a salt. Where two headings read alike, the source gives them in different places.
Key:
[1] = target: ER glucosidase II (rat liver); conditions: read-out: Inhibitory activity IC50; cited from earlier work
human α-galactosidase A = target: T1, human α-galactosidase A (Homo sapiens, UniProt P06280); assay type: biochemical
T1 sequence (P06280 32-429): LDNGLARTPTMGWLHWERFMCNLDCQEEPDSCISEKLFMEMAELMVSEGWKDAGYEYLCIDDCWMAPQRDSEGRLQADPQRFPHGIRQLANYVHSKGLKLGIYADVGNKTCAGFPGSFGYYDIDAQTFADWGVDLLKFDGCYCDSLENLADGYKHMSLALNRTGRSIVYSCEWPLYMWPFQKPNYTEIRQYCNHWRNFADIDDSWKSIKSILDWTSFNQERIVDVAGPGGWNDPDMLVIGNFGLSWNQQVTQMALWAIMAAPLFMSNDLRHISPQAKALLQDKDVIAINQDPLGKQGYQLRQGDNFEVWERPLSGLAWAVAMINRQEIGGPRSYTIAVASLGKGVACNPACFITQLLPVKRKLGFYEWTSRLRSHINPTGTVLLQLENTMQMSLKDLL

severe COVID-19 = severe COVID-19 patients; cited from earlier work
α-glucosidase (yeast) = conditions: cited from earlier work
yeast α-glucosidase = yeast α-glucosidase (Saccharomyces cerevisiae, UniProt P53341); assay type: biochemical
α-glucosidase in rice = conditions: cited from earlier work
SARS-CoV-2 [2] = conditions: Vero E6 cells; cited from earlier work
SARS-CoV-2 [3] = conditions: A549-ACE2 cells; cited from earlier work
[4] = system: influenza haemagglutinin folding process in ER; conditions: cited from earlier work
A549-ACE2 cells = assay: Cell toxicity assay; assay type: cell-based, human

Sequence of yeast α-glucosidase (P53341 whole entry): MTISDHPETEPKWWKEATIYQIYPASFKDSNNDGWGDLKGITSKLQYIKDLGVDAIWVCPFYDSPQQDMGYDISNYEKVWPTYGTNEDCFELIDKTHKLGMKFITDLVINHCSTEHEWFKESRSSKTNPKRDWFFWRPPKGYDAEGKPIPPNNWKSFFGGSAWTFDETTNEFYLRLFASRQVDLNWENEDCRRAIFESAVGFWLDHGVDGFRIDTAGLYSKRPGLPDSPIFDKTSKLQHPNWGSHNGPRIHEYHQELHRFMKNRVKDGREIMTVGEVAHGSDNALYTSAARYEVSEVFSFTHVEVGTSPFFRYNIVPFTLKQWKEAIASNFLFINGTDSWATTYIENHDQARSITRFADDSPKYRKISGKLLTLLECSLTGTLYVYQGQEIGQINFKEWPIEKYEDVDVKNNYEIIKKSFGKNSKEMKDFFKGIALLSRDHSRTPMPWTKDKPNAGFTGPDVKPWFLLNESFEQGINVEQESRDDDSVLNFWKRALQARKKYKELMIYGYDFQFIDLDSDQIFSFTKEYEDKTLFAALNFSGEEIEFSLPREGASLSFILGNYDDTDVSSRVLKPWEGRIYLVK

OC[C@H]1NC[C@H](O)[C@@H](O)[C@@H]1O [Compound 2, deoxynojirimycin]
IC50 [1]: 16 µM

CN1NC[C@@H](O)[C@@H](O)[C@H]1CO [Compound 104, (4R,5S,6R)-6-(hydroxymethyl)-1-methylhexahydropyridazine-4,5-diol hydrochloride]
IC50 (human α-galactosidase A): > 100 µM

C[C@@H]1C[C@H]2[C@@H]3CCC4=CC(=O)C=C[C@]4(C)[C@@]3(F)[C@@H](O)C[C@]2(C)[C@@]1(O)C(=O)CO [dexamethasone]
reduction of mortality (severe COVID-19): 30%

CN1C[C@H](O)[C@@H](O)[C@@H](O)[C@H]1CO [Compound 87, (2R,3S,4R,5S)-2-(hydroxymethyl)-1-methylpiperidine-3,4,5-triol]
IC50 (human α-galactosidase A): 5.1 µM

OCCN1C[C@H](O)[C@@H](O)[C@H](O)[C@H]1CO [Compound 8, miglitol]
IC50 (α-glucosidase (yeast)): > 1000 µM | IC50 (α-glucosidase (yeast); read-out: Inhibitory activity IC50, ref 37): 9880 µM | IC50 (α-glucosidase (yeast); read-out: Inhibitory activity IC50, ref 46): 41.3 µM | IC50 (yeast α-glucosidase): > 500 µM | IC50 (α-glucosidase in rice): 0.05 µM

OC[C@@H]1[C@@H](O)[C@H](O)[C@@H](O)CN1CCCCCC12CC(C1)C2 [Compound 22, (2 R,3R,4R,5S)-1–(5-(Bicyclo[1.1.1]pentan-1-yl)pentyl)-3,4,5-trihydroxy-2-(hydroxymethyl)piperidin-1-ium chloride]
IC50 (yeast α-glucosidase): 218 µM

CCCC(=O)O[C@H]1CN2CC[C@H](O)[C@@H]2[C@@H](O)[C@@H]1O [celgosivir]
EC50 (SARS-CoV-2 [2]): 1 ± 0.2 µM

CCCCN1C[C@H](O)[C@@H](O)[C@H](O)[C@H]1CO [Compound 1, N-butyldeoxynojirimycin]
Inhibitory activity, % at 1 mM (α-glucosidase (yeast); 1 mM): 12.7% | IC50 (yeast α-glucosidase): > 500 µM | EC50 (SARS-CoV-2 [2]): 41 ± 22 µM | IC50 [1]: 13 µM

CCCCCCCCCN1CC[C@@H](O)[C@@H](O)[C@H]1CO [Compound 94, (2R,3S,4R)-2-(hydroxymethyl)-1-nonylpiperidine-3,4-diol]
IC50 (human α-galactosidase A): > 100 µM

COCCCCCCCCCN1C[C@H](O)[C@@H](O)[C@H](O)[C@H]1CO [UV-4]
EC50 (SARS-CoV-2 [3]): 4 µM

OC[C@H]1NNC[C@@H](O)[C@H]1O [Compound 40, (3 R,4S,5R)-3-(hydroxymethyl)hexahydropyridazine-4,5-diol hydrochloride]
IC50 (human α-galactosidase A): > 100 µM

OC[C@@H]1[C@@H](O)[C@H](O)[C@@H](O)CN1CCCCCOCC12CC3CC(CC(C3)C1)C2 [Compound 77, (2 R,3R,4R,5S)-1–(5-(adamantan-1-ylmethoxy)pentyl)-2-(hydroxymethyl)piperidine-3,4,5-triol]
IC50 (yeast α-glucosidase): 67 µM | concentration at which inhibition occurred [4]: 200 µM

CCCCCCCCCN1C[C@H](O)[C@@H](O)[C@@H](O)[C@H]1CO [Compound 89, (2R,3S,4R,5S)-2-(hydroxymethyl)-1-nonylpiperidine-3,4,5-triol]
IC50 (human α-galactosidase A): > 100 µM

CC/C(=C(\c1ccccc1)c1ccc(OCCN(C)C)cc1)c1ccccc1 [Compound 72, tamoxifen]
cytotoxicity, concentration relative to antiviral EC90 (A549-ACE2 cells): 100 fold

O[C@H]1[C@H]2[C@H](O)CCCN2C[C@H]1O [Compound 3, swainsonine]
cytotoxicity at EC90 concentrations (A549-ACE2 cells): cytotoxicity at EC90 concentrations

CN1C[C@H](O)[C@@H](O)[C@H](O)[C@H]1CO [Compound 75, (2R,3R,4R,5S)-2-(hydroxymethyl)-1-methylpiperidine-3,4,5-triol]
IC50 (yeast α-glucosidase): 572 µM

CCCCCCCCCN1C[C@H](O)[C@@H](O)[C@H](O)[C@H]1CO [Compound 76, (2R,3R,4R,5S)-2-(hydroxymethyl)-1-nonylpiperidine-3,4,5-triol]
IC50 (yeast α-glucosidase): 70 µM

Source: article PMC11721942 (Journal of Enzyme Inhibition and Medicinal Chemistry, 2023)
